29 compounds from patent US20230391774A1, “Novel Compounds” (AC Immune SA, priority 2020, published 2023) can be followed below.

Test [1] deals with T1, flTau aggregates (longest isoform of human Tau, 2N4R) (Homo sapiens, UniProt P10636).
T1 construct: 35 μM of recombinant full-length (fl) Tau in phosphate-buffered saline (PBS) were aggregated; purchased Biotechne; host or cells: bacteria
Put plainly: Full-length Tau (flTau) disaggregation assay by Thioflavin T (ThT). It is filed as biochemical. As to conditions: ThT fluorescence; 60 nM flTau aggregates, 30 minutes at RT; read-out: flTau disaggregation EC50. The procedure: Full-Length Tau (flTau) Disaggregation Assay by Thioflavin T (ThT)
The longest isoform of human Tau (2N4R; 441 amino acids) was expressed in bacteria and purified (Biotechne). For the Tau disaggregation assay by ThT, 35 μM of recombinant full-length (fl) Tau in phosphate-buffered saline (PBS) were aggregated for 72 hours at 37° C. in presence of 35 μM of heparin (Sigma-Aldrich) and 10 mM of […] (Sigma-Aldrich) under shaking at 1000 RPM. Compound 1 was dissolved in anhydrous dimethyl sulfoxide (DMSO, Sigma-Aldrich) to reach a concentration of 2.5 mM. flTau aggregates and serial dilutions of compound 1 were mixed together in PBS (volume 50 μL) to a final concentration of 60 nM of flTau aggregates and from 20 to 0.0012 μM of Compound 1. The mixture was incubated for 30 minutes at room temperature (RT), then 40 μL of this mixture were transferred into a black 384-well plate assay (Perkin-Elmer) and mixed with 10 μL of 20 μM ThT in 250 mM glycine (both from Sigma-Aldrich) in PBS. Fluorescence (relative fluorescence units; RFU) was measured in monoplicate or duplicate on a Tecan reader (excitation: 440 nm; emission: 485 nm). Percentage of flTau disaggregation was then calculated and the half maximal effective concentration (EC50) was determined using GraphPad Prism version 8 (GraphPad Software) assuming a one-binding site fitting model, see Table 3 and Table 4.

The target of test [2] is T2, Tau K18 fragment aggregates (amino acids 244 to 372 of human Tau441) (Homo sapiens, UniProt P10636).
T2 construct: encompassing amino acids 244 to 372 of the longest isoform (2N4R) of human Tau441; purchased Biotechne; host or cells: bacteria
The test is described as follows: Tau K18 disaggregation assay by ThT. The note with it: ThT fluorescence; 2 μM K18 aggregates, 30 minutes at RT. It is filed as biochemical. The procedure:
Tau K18 Disaggregation Assay by ThT
The Tau K18 fragment, encompassing amino acids 244 to 372 of the longest isoform (2N4R) of human Tau441, was expressed in bacteria and purified (Biotechne). For the K18 disaggregation assay by ThT, 35 μM of recombinant K18 in PBS were aggregated for 24 hours at 37° C. in presence of 25 μM of heparin (Sigma-Aldrich) and 10 mM of 1,4-Dithiothreito (DTT from Sigma-Aldrich) under shaking at 750 RPM. Compound 1 was dissolved in anhydrous dimethyl sulfoxide (DMSO, Sigma-Aldrich) to reach a concentration of 10 mM. K18 aggregates and serial dilutions of compounds were mixed together in PBS (volume 50 μL) to a final concentration of 2 μM of K18 aggregates and from 400 to 0.1 μM of Compound 1. The mixture was incubated for 30 minutes at room temperature (RT), then 40 μL of this mixture were transferred into a black 384-well plate assay (Perkin-Elmer) and mixed with 10 μL of 100 μM ThT in 250 mM glycine (both from Sigma-Aldrich) in PBS. Fluorescence (relative fluorescence units; RFU) was measured in monoplicate or duplicate on a Tecan reader (excitation: 440 nm; emission: 485 nm). Percentage of K18 disaggregation was then calculated and half maximal effective concentration (EC50) was determined using GraphPad Prism version 8 (GraphPad Software) assuming a one-binding site fitting model, see Table 3 and Table 4.

Counter-ions that a name gives are not always drawn.

T1 sequence (P10636 1-441 isoform P10636-8): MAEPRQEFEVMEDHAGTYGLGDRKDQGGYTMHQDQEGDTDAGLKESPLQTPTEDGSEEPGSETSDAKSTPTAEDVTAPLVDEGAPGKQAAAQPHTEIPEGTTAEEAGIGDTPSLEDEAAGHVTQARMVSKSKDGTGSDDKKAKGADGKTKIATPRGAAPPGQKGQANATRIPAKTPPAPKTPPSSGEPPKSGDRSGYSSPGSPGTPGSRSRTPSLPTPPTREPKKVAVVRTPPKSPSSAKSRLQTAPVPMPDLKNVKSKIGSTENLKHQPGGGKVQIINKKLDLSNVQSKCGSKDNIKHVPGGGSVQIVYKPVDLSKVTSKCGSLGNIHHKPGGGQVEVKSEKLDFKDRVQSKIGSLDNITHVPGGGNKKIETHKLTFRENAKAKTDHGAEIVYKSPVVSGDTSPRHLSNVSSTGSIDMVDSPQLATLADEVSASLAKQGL
T2 sequence (P10636 561-689): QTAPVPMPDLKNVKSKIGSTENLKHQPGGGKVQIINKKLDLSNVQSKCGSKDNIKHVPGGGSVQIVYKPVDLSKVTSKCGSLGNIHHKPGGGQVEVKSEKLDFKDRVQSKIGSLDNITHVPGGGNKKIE

Take `O=C(Nc1c[nH]c2ccccc12)c1ccc2oc(N3CCOCC3)nc2c1` [Example 7, N-(1H-indol-3-yl)-2-morpholinobenzo[d]oxazole-5-carboxamide]: the EC50 in test [1] and in test [2] was less than 1 µM in each case. Take `c1ccc2c(-c3cnn(-c4ccc5oc(N6CCOCC6)nc5c4)c3)c[nH]c2c1` [Example 9, 5-(4-(1H-indol-3-yl)-1H-pyrazol-1-yl)-2-morpholinobenzo[d]oxazole]: the EC50 in test [1] and in test [2] was less than 1 µM in each case. Regarding `O=C(Nc1ccc2nc(N3CCOCC3)oc2c1)c1n[nH]c2ccccc12` [Example 16, N-(2-morpholinobenzo[d]oxazol-6-yl)-1H-indazole-3-carboxamide], the EC50 (as a rule, the concentration at which the effect is half-maximal) in test [2] was in the range of 10 to 50 µM.

Consider `O=C(Nc1ccc2nc(N3CCOCC3)sc2c1)c1c[nH]c2ccc(F)cc12` [Example 17, 5-fluoro-N-(2-morpholinobenzo[d]thiazol-6-yl)-1H-indole-3-carboxamide], for which the EC50 was less than 1 µM in test [1] and 1 to 10 µM in test [2]. As for `c1ccc2c(C3CCN(c4ccc5oc(N6CCOCC6)nc5c4)CC3)c[nH]c2c1` [Example 19, 5-(4-(1H-indol-3-yl)piperidin-1-yl)-2-morpholinobenzo[d]oxazole], the EC50 in test [1] and in test [2] was 1 to 10 µM each time. `c1cnc2[nH]cc(C3CCN(c4ccc5oc(N6CCOCC6)nc5c4)CC3)c2c1` [Example 20, 5-(4-(1H-pyrrolo[2,3-b]pyridin-3-yl)piperidin-1-yl)-2-morpholinobenzo[d]oxazole]: the EC50 in test [1] was less than 1 µM; in test [2], 1 to 10 µM. In test [2], `Cn1cc(C2CCN(c3ccc4oc(N5CCOCC5)nc4c3)CC2)c2cc(F)cnc21` [Example 23, 5-(4-(5-fluoro-1-methyl-1H-pyrrolo[2,3-b]pyridin-3-yl)piperidin-1-yl)-2-morpholinobenzo[d]oxazole] gave an EC50 of 10 to 50 µM. In the case of `c1ccc2c(C3CCN(c4cc5sc(N6CCOCC6)nc5cn4)CC3)c[nH]c2c1` [Example 24, 4-(6-(4-(1H-indol-3-yl)piperidin-1-yl)thiazolo[4,5-c]pyridin-2-yl)morpholine], the EC50 in test [1] and in test [2] was less than 1 µM each time. In turn, `Cn1cc(C2CCN(c3ccc4oc(N5CCOCC5)nc4c3)C2)c2cc(F)cnc21` (centres unmarked) [Example 34, 5-(3-(5-fluoro-1-methyl-1H-pyrrolo[2,3-b]pyridin-3-yl)pyrrolidin-1-yl)-2-morpholinobenzo[d]oxazole] gave an EC50 in test [2] of 1 to 10 µM. With `c1ccc2c(C3CCN(c4cnc5sc(N6CCOCC6)nc5c4)CC3)n[nH]c2c1` [Example 42, 4-(6-(4-(1H-indazol-3-yl)piperidin-1-yl)thiazolo[5,4-b]pyridin-2-yl)morpholine], the EC50 in test [2] lay in the range of 10 to 50 µM. Take `c1ccc2c(C3CCN(c4ccc5nc(N6CCOCC6)oc5c4)CC3)c[nH]c2c1` [Example 52, 6-(4-(1H-indol-3-yl)piperidin-1-yl)-2-morpholinobenzo[d]oxazole]: the EC50 in test [2] is 10 to 50 µM.

In test [2], `Fc1cnc2c(C3CCN(c4ccc5oc(N6CCOCC6)nc5c4)CC3)c[nH]c2c1` [Example 53, 5-(4-(6-fluoro-1H-pyrrolo[3,2-b]pyridin-3-yl)piperidin-1-yl)-2-morpholinobenzo[d]oxazole] displayed a 50% effective concentration (EC50) of 1 to 10 µM.

For `c1cc2c(C3CCN(c4ccc5oc(N6CCOCC6)nc5c4)CC3)c[nH]c2cn1` [Example 54, 5-(4-(1H-pyrrolo[2,3-c]pyridin-3-yl)piperidin-1-yl)-2-morpholinobenzo[d]oxazole], the EC50 in test [2] lay in the range of 10 to 50 µM.

`c1cc2[nH]cc(C3CCN(c4ccc5oc(N6CCOCC6)nc5c4)CC3)c2cn1` [Example 55, 5-(4-(1H-pyrrolo[3,2-c]pyridin-3-yl)piperidin-1-yl)-2-morpholinobenzo[d]oxazole] came in with an EC50 in test [2] of 1 to 10 µM.

As to `c1ccc2c(N3CCN(c4ccc5oc(N6CCOCC6)nc5c4)CC3)c[nH]c2c1` [Example 56, 5-(4-(1H-indol-3-yl)piperazin-1-yl)-2-morpholinobenzo[d]oxazole], the half-maximal effective concentration (EC50) in test [2] was in the range of 1 to 10 µM. Still for that read-out and setting: in the case of `Cn1cc(C2CCN(c3ccc4nc(N5CCOCC5)sc4n3)CC2)c2cc(F)cnc21` [Example 57, 4-(5-(4-(5-fluoro-1-methyl-1H-pyrrolo[2,3-b]pyridin-3-yl)piperidin-1-yl)thiazolo[5,4-b]pyridin-2-yl)morpholine] it was 10 to 50 µM; in that of `c1ccc2c(C3CCN(c4cc5oc(N6CCOCC6)nc5cn4)CC3)c[nH]c2c1` [Example 58, 6-(4-(1H-indol-3-yl)piperidin-1-yl)-2-morpholinooxazolo[4,5-c]pyridine], 10 to 50 µM; in that of `c1ccn2c(C3CCN(c4ccc5nc(N6CCOCC6)oc5c4)CC3)cnc2c1` [Example 59, 6-(4-(imidazo[1,2-a]pyridin-3-yl)piperidin-1-yl)-2-morpholinobenzo[d]oxazole], 1 to 10 µM. Compound `c1ccc2c(C3CCN(c4ccc5sc(N6CCOCC6)nc5n4)CC3)n[nH]c2c1` [Example 62, 4-(5-(4-(1H-indazol-3-yl)piperidin-1-yl)thiazolo[4,5-b]pyridin-2-yl)morpholine] yielded an EC50 in test [2] of 1 to 10 µM. Take `c1ccc2c(C3CCN(c4ccc5sc(N6CCOCC6)nc5c4)CC3)n[nH]c2c1` [Example 63, 4-(5-(4-(1H-indazol-3-yl)piperidin-1-yl)benzo[d]thiazol-2-yl)morpholine]: the EC50 in test [2] lay in the range of 10 to 50 µM.

`c1ccc2c(C3CCN(c4ccc5nc(N6CCOCC6)oc5n4)CC3)n[nH]c2c1` [Example 64, 5-(4-(1H-indazol-3-yl)piperidin-1-yl)-2-morpholinooxazolo[5,4-b]pyridine] yielded an EC50 in test [2] of 1 to 10 µM. For `c1ccc2c(C3CCN(c4cnc5sc(N6CCOCC6)nc5c4)CC3)c[nH]c2c1` [Example 65, 4-(6-(4-(1H-indol-3-yl)piperidin-1-yl)thiazolo[5,4-b]pyridin-2-yl)morpholine], in test [2], the EC50 fell in the range of 1 to 10 µM. As for `c1ccc2c(C3CCN(c4cc5nc(N6CCOCC6)sc5cn4)CC3)n[nH]c2c1` [Example 66, 4-(6-(4-(1H-indazol-3-yl)piperidin-1-yl)thiazolo[5,4-c]pyridin-2-yl)morpholine], the EC50 in test [2] is less than 1 µM. Regarding `c1ccc2c(C3CCN(c4cc5nc(N6CCOCC6)sc5cn4)CC3)c[nH]c2c1` [Example 67, 4-(6-(4-(1H-indol-3-yl)piperidin-1-yl)thiazolo[5,4-c]pyridin-2-yl)morpholine], the EC50 in test [2] is less than 1 µM. Still for that read-out and setting: with `Fc1ccc2[nH]cc(C3CCN(c4ccc5oc(N6CCOCC6)nc5c4)CC3)c2c1` [Example 69, 5-(4-(5-fluoro-1H-indol-3-yl)piperidin-1-yl)-2-morpholinobenzo[d]oxazole] the figure was 1 to 10 µM; with `c1ccc2c(C3CCN(c4ccc5nc(N6CCOCC6)oc5n4)CC3)c[nH]c2c1` [Example 101, 5-(4-(1H-indol-3-yl)piperidin-1-yl)-2-morpholinooxazolo[5,4-b]pyridine], 10 to 50 µM.

`Fc1cnc2c(C3CCN(c4ccc5nc(N6CCOCC6)oc5c4)CC3)c[nH]c2c1` [Example 103, 6-(4-(6-fluoro-1H-pyrrolo[3,2-b]pyridin-3-yl)piperidin-1-yl)-2-morpholinobenzo[d]oxazole] had an EC50 in test [2] of 1 to 10 µM. The compound `c1ccc2c(C3CCN(c4ccc5nc(N6CCOCC6)sc5n4)CC3)c[nH]c2c1` [Example 108, 4-(5-(4-(1H-indol-3-yl)piperidin-1-yl)thiazolo[5,4-b]pyridin-2-yl)morpholine hydrochloride] had an EC50 in test [2] of 10 to 50 µM.

Compound `Cn1cc(C2CC3CN(c4ccc5oc(N6CCOCC6)nc5c4)CC3C2)c2cc(F)cnc21` (centres unmarked) [Example 112, 5-(5-(5-fluoro-1-methyl-1H-pyrrolo[2,3-b]pyridin-3-yl)hexahydrocyclopenta[c]pyrrol-2(1H)-yl)-2-morpholinobenzo[d]oxazole hydrochloride] yielded an EC50 in test [2] of 1 to 10 µM.
